Measured values taken from ChEMBL document CHEMBL5390254, “Discovery and Optimization of Novel hDHODH Inhibitors for the Treatment of Inflammatory Bowel Disease” (J Med Chem, 2023).
The source made the active and inactive calls. The calls are words filed in the database; no cut-off is given here.

What was measured:
[1] = Acute toxicity in BALB/c mouse assessed as changes in neutrophil level in blood at 1000 mg/kg,po and measured after 14 days by hematology test; type: organism-based; conditions: in vivo, 336 h, time 14 day
[2] = Acute toxicity in BALB/c mouse assessed as changes in ALT level in serum at 1000 mg/kg,po and measured after 14 days by Biochemistry analysis; type: organism-based; conditions: in vivo, 336 h, time 14 day
[3] = test system: Mus musculus; assay: Anti-inflammatory activity against DSS-induced acute ulcerative colitis in C57BL/6 mouse model assessed as decrease in IL-1beta mRNA expression level in colon at 100 mg/kg, po QD for 6 days by RT-PCR analysis; type: functional, organism-based; conditions: time 6.0 day
[4] = test system: Mus musculus; assay: Anti-inflammatory activity against DSS-induced acute ulcerative colitis in C57BL/6 mouse model assessed as decrease in DAI score at 100 mg/kg, po QD for 6 days; type: functional, organism-based; conditions: time 6.0 day
[5] = Acute toxicity in BALB/c mouse assessed as changes in urea level in serum at 1000 mg/kg,po and measured after 14 days by Biochemistry analysis; type: organism-based; conditions: in vivo, 336 h, time 14 day
[6] = test system: Mus musculus; assay: Anti-inflammatory activity against DSS-induced acute ulcerative colitis in C57BL/6 mouse model assessed as decrease in IL-17 production in colon at 100 mg/kg, po QD for 6 days by ELISA; type: functional, organism-based; conditions: time 6.0 day
[7] = Acute toxicity in BALB/c mouse assessed as changes in CREA level in serum at 1000 mg/kg,po and measured after 14 days by Biochemistry analysis; type: organism-based; conditions: in vivo, 336 h, time 14 day
[8] = Acute toxicity in BALB/c mouse assessed as changes in LDH level in serum at 1000 mg/kg,po and measured after 14 days by Biochemistry analysis; type: organism-based; conditions: in vivo, 336 h, time 14 day
[9] = Acute toxicity in BALB/c mouse assessed as tissue damage in lung at 1000 mg/kg,po and measured after 14 days by hematoxylin and eosin staining based microscopy; type: organism-based; conditions: in vivo, 336 h, time 14 day
[10] = Acute toxicity in BALB/c mouse assessed as tissue damage in spleen at 1000 mg/kg,po and measured after 14 days by hematoxylin and eosin staining based microscopy; type: organism-based; conditions: in vivo, 336 h, time 14 day
[11] = test system: Mus musculus; assay: Anti-inflammatory activity against DSS-induced acute ulcerative colitis in C57BL/6 mouse model assessed as decrease in IL-6 mRNA expression level in colon at 100 mg/kg, po QD for 6 days by RT-PCR analysis; type: functional, organism-based; conditions: time 6.0 day
[12] = Acute toxicity in BALB/c mouse assessed as changes in ALP level in serum at 1000 mg/kg,po and measured after 14 days by Biochemistry analysis; type: organism-based; conditions: in vivo, 336 h, time 14 day
[13] = Acute toxicity in BALB/c mouse assessed as tissue damage in heart at 1000 mg/kg,po and measured after 14 days by hematoxylin and eosin staining based microscopy; type: organism-based; conditions: in vivo, 336 h, time 14 day
[14] = Acute toxicity in BALB/c mouse assessed as tissue damage in kidney at 1000 mg/kg,po and measured after 14 days by hematoxylin and eosin staining based microscopy; type: organism-based; conditions: in vivo, 336 h, time 14 day
[15] = Acute toxicity in BALB/c mouse assessed as changes in UA level in serum at 1000 mg/kg,po and measured after 14 days by Biochemistry analysis; type: organism-based; conditions: in vivo, 336 h, time 14 day
[16] = Acute toxicity in BALB/c mouse assessed as death at 1000 mg/kg,po and measured for 14 days; type: organism-based; conditions: in vivo, 336 h, time 14 day
[17] = Metabolic stability in rat liver microsomes assessed as half life at 3 uM incubated upto 90 mins in presence of NADPH by LC-MS/MS analysis; type: ADME, Microsome
[18] = Metabolic stability in human liver microsomes assessed as half life at 3 uM incubated upto 90 mins in presence of NADPH by LC-MS/MS analysis; type: ADME, Microsome
[19] = test system: Mus musculus; assay: Anti-inflammatory activity against DSS-induced acute ulcerative colitis in C57BL/6 mouse model assessed as decrease in IL-17 mRNA expression level in colon at 100 mg/kg, po QD for 6 days by RT-PCR analysis; type: functional, organism-based; conditions: time 6.0 day
[20] = test system: Mus musculus; assay: Anti-inflammatory activity against DSS-induced acute ulcerative colitis in C57BL/6 mouse model assessed as decrease in IL-1beta production in colon at 100 mg/kg, po QD for 6 days by ELISA; type: functional, organism-based; conditions: time 6.0 day
[21] = Acute toxicity in BALB/c mouse assessed as changes in hemoglobin level in blood at 1000 mg/kg,po and measured after 14 days by hematology test; type: organism-based; conditions: in vivo, 336 h, time 14 day
[22] = test system: Mus musculus; assay: Anti-inflammatory activity against DSS-induced acute ulcerative colitis in C57BL/6 mouse model assessed as decrease in colon tissue damage score at 100 mg/kg, po QD for 6 days relative to DSS group; type: functional; set-up: scale not given: the % may be the effect or the level left; conditions: time 6 day
[23] = Acute toxicity in BALB/c mouse assessed as tissue damage in liver at 1000 mg/kg,po and measured after 14 days by hematoxylin and eosin staining based microscopy; type: organism-based; conditions: in vivo, 336 h, time 14 day
[24] = Metabolic stability in rat liver microsomes assessed as intrinsic clearance at 3 uM incubated upto 90 mins in presence of NADPH by LC-MS/MS analysis; type: ADME, Microsome; conditions: read-out: CLH
[25] = Metabolic stability in human liver microsomes assessed as intrinsic clearance at 3 uM incubated upto 90 mins in presence of NADPH by LC-MS/MS analysis; type: ADME, Microsome; conditions: read-out: CLH
[26] = Acute toxicity in BALB/c mouse assessed as changes in CK level in serum at 1000 mg/kg,po and measured after 14 days by Biochemistry analysis; type: organism-based; conditions: in vivo, 336 h, time 14 day
[27] = Acute toxicity in BALB/c mouse assessed as changes in WBC level in blood at 1000 mg/kg,po and measured after 14 days by hematology test; type: organism-based; conditions: in vivo, 336 h, time 14 day
[28] = Acute toxicity in BALB/c mouse assessed as changes in RBC level in blood at 1000 mg/kg,po and measured after 14 days by hematology test; type: organism-based, Erythrocyte; conditions: in vivo, 336 h, time 14 day
[29] = Acute toxicity in BALB/c mouse assessed as changes in lymph level in blood at 1000 mg/kg,po and measured after 14 days by hematology test; type: organism-based; conditions: in vivo, 336 h, time 14 day
[30] = Acute toxicity in BALB/c mouse assessed as changes in hematocrit level in blood at 1000 mg/kg,po and measured after 14 days by hematology test; type: organism-based; conditions: in vivo, 336 h, time 14 day
[31] = test system: Mus musculus; assay: Anti-inflammatory activity against DSS-induced acute ulcerative colitis in C57BL/6 mouse model assessed as decrease in body weight loss at 100 mg/kg, po QD for 6 days (Rvb= 25.6%); type: functional; set-up: scale not given: the % may be the effect or the level left; conditions: time 6 day
[32] = test system: Mus musculus; assay: Anti-inflammatory activity against DSS-induced acute ulcerative colitis in C57BL/6 mouse model assessed as decrease in IL-6 production in colon at 100 mg/kg, po QD for 6 days by ELISA; type: functional, organism-based; conditions: time 6.0 day
[33] = 1-octanol/water partition coefficient, logP of the compound at 2 mg by UPLC analysis; type: physicochemical
[34] = Acute toxicity in BALB/c mouse assessed as changes in platelet count in blood at 1000 mg/kg,po and measured after 14 days by hematology test; type: organism-based; conditions: in vivo, 336 h, time 14 day
[35] = test system: Mus musculus; assay: Anti-inflammatory activity against DSS-induced acute ulcerative colitis in C57BL/6 mouse model assessed as decrease in colon length shortening at 100 mg/kg, po QD for 6 days (Rvb= 5.5cm); type: functional; conditions: time 6 day
[36] = Metabolic stability in mouse liver microsomes assessed as intrinsic clearance at 3 uM incubated upto 90 mins in presence of NADPH by LC-MS/MS analysis; type: ADME, Microsome; conditions: read-out: CLH
[37] = Acute toxicity in BALB/c mouse assessed as body weight loss at 1000 mg/kg,po and measured for 14 days; type: organism-based; conditions: in vivo, 336 h, time 14 day
[38] = Acute toxicity in BALB/c mouse assessed as changes in ALB level in serum at 1000 mg/kg,po and measured after 14 days by Biochemistry analysis; type: organism-based; conditions: in vivo, 336 h, time 14 day
[39] = Acute toxicity in BALB/c mouse assessed as changes in general health status at 1000 mg/kg,po and measured for 14 days; type: organism-based; conditions: in vivo, 336 h, time 14 day
[40] = Acute toxicity in BALB/c mouse assessed as changes in TP level in serum at 1000 mg/kg,po and measured after 14 days by Biochemistry analysis; type: organism-based; conditions: in vivo, 336 h, time 14 day
[41] = Acute toxicity in po dosed BALB/c mouse assessed as maximum tolerate dose; type: organism-based; conditions: in vivo
[42] = Acute toxicity in BALB/c mouse assessed as changes in AST level in serum at 1000 mg/kg,po and measured after 14 days by Biochemistry analysis; type: organism-based; conditions: in vivo, 336 h, time 14 day
[43] = Metabolic stability in mouse liver microsomes assessed as half life at 3 uM incubated upto 90 mins in presence of NADPH by LC-MS/MS analysis; type: ADME, Microsome

Fc1cccc(Cl)c1Cn1cc(-c2ncc(C3CC3)cn2)c2cccnc21
Activity [1]: Non-Toxic
Activity [2]: Non-Toxic
Activity [3]: Active
Activity [4]: Active
Activity [5]: Non-Toxic
Activity [6]: Active
Activity [7]: Non-Toxic
Activity [8]: Non-Toxic
Activity [9]: Non-Toxic
Activity [10]: Non-Toxic
Activity [11]: Active
Activity [12]: Non-Toxic
Activity [13]: Non-Toxic
Activity [14]: Non-Toxic
Activity [15]: Non-Toxic
Activity [16]: Non-Toxic
half-life at 3 µM [17]: 16.5 min
half-life at 3 µM [18]: 9.2 min
Activity [19]: Active
Activity [20]: Active
Activity [21]: Non-Toxic
Activity [22]: 27.27%
Activity [23]: Non-Toxic
CLint scaled at 3 µM [24]: 150 mL/min/kg
CLint scaled at 3 µM [25]: 190 mL/min/kg
Activity [26]: Non-Toxic
Activity [27]: Non-Toxic
Activity [28]: Non-Toxic
Activity [29]: Non-Toxic
Activity [30]: Non-Toxic
Activity [31]: 17.6%
Activity [32]: Active
logP [33]: 5.3
Activity [34]: Non-Toxic
Activity [35]: 6.1 cm
CLint scaled at 3 µM [36]: 693 mL/min/kg
Activity [37]: Non-Toxic
Activity [38]: Non-Toxic
Activity [39]: Non-Toxic
Activity [40]: Non-Toxic
MTD [41]: 1000 mg/kg
Activity [42]: Non-Toxic
half-life at 3 µM [43]: 7.9 min
